From PubChem BioAssay AID179 (DTP/NCI, 2004)
pEC50, pIC50: −log10 of the molar value. Calls of active or inactive are those of the source.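 The calls were made as follows: active = compounds giving half or more protection of infected cells from virus-caused growth loss, again on retest; inactive = the rest.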 Where a SMILES comes first, the peptide text is derived from it.

System: CEM cells HIV-1 protection, formazan growth assay
Assay: NCI AIDS Antiviral Assay
Details: for pIC50: measured here: growth of uninfected CEM cells
Procedure, shortened: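 Protection of CEM cells against HIV-1 measured as cell growth via soluble formazan read-out, with five concentrations tested on both infected and uninfected cells; failure to protect may reflect toxicity.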

Structure (SMILES) | pEC50 | pIC50 | outcome
O=C1CCN(CCC(F)(F)C(F)(F)C(F)(F)C(F)(F)C(F)(F)C(F)(F)F)C(=S)N1CCC(F)(F)C(F)(F)C(F)(F)C(F)(F)C(F)(F)C(F)(F)F | < 4.78 | < 4.78 | 
C=CCO/N=C/c1cc(NC(=S)c2ccoc2C)ccc1Cl | 7.73 | 4.81 | 
c1ccc2c(c1)CCN2CCc1c[nH]c2ccccc12 | < 3.70 | 3.75 | 
CC1=CCCC2C(C1)C(=O)CC(C)C2(C)CC/C(=C/CO)CO (stereo unspecified) |  |  | inactive
CC(C)(Oc1ccc2c(=O)cc(-c3ccccc3)oc2c1)C(=O)N1CCN(c2ccccc2)CC1 | < 3.70 | 4.68 | 
CC1CN1C(=O)NCCCCCCNC(=O)N1CC1C (stereo unspecified) | < 3.70 | 5.32 | 
CN1CC(=O)N(C)c2nc[nH]c2C1=O |  |  | inactive
O=C(N/N=C(/c1ccccc1)C(F)(F)F)c1ccncc1 | < 3.70 | < 3.70 | 
CC(C)(Br)C(=O)C(Br)Br | < 3.70 | 5.28 | 
Cc1cccc2c(O)cc(=O)oc12 |  |  | inactive
CCOP(=O)(OCC)C(Nc1ccc(F)cc1)c1ccccc1 (stereo unspecified) | < 3.70 | 4.05 | 
O=C(CC(=O)c1cccc([N+](=O)[O-])c1)C(=O)Nc1ccccc1 | < 3.38 | < 3.38 | 
COc1cc2c(c(OC)c1OC)CCc1cnoc1-2 | < 3.59 | < 4.00 | 
C=Cc1ccccc1C1(O)C=CC(OC)(OC)C=C1 | < 3.70 | 5.10 | 
CN(C)c1ccc(-c2c3ccccc3nc3ccccc23)cc1 | < 5.34 | < 5.34 | 
N#C/C(=C(/Cc1ccc(F)cc1)NP(=O)(c1ccccc1)c1ccccc1)c1ccc(F)cc1 | < 4.67 | < 4.67 | 
N#Cc1c(Cl)cc(C#N)n2c1nc1ccccc12 | < 4.70 | 6.44 | 
COC(=O)c1ccc2c(c1)C(O)NC(=O)O2 (stereo unspecified) | < 3.70 | 4.46 | 
COC(=O)CCC(=O)c1ccc2c(c1)CC1(C2)Cc2ccc(C(=O)CCC(=O)OC)cc2C1 | < 3.70 | 4.37 | 
CCN(CC)C(=O)c1cccc2cccc(OC)c12 |  |  | inactive
C=CCSc1n[nH]c(=S)c2nc[nH]c12 | < 3.70 | 3.89 | 

Structure (SMILES) | pEC50 | pIC50 | outcome
O=C(CCCC[n+]1ccccc1)Sc1ccccc1C(=O)Nc1ccc(S(=O)(=O)Nc2ccnn2-c2ccccc2)cc1 | 5.21 | 4.45 | 
O=C(N=c1nc2ccccn2s1)c1ccccc1 | < 4.27 | < 4.27 | 
COc1ccc(C(=O)O)c(Cc2cccc3ccccc23)c1 |  |  | inactive
CSc1nc(C(N)=O)c(NC(=O)c2ccccc2)s1 | < 3.70 | 3.78 | 
COc1ccc(C2CC(=O)Oc3ccccc3O2)cc1 (stereo unspecified) | 3.99 | 3.82 | 
O=C(c1ccc(Cl)cc1)N(C(=S)N1CCN(c2ccccc2)CC1)C1CCCCC1 | < 5.21 | < 5.21 | 
C[n+]1c(-c2ccc(/C=N/Nc3ccnc(N/N=C/c4ccc(-c5cn6ccsc6[n+]5C)cc4)n3)cc2)cn2ccsc21 | 4.94 | 4.38 | 
CCc1ccccc1NC(=O)C(=O)C1C(=O)N(c2ccccc2)N=C1N (stereo unspecified) | < 3.15 | 3.65 | 
O=C1c2c(c3c4ccccc4n(CC4CO4)c3c3[nH]c4ccccc4c23)C(=O)N1Cc1ccccc1 (stereo unspecified) |  |  | inactive
COc1ccc2oc(=O)c(-c3csc(-c4ccccc4)n3)cc2c1 |  |  | inactive
CCN(CC)C(=S)S | < 2.84 | 4.40 | 
CCOP(=O)(CCCC(O)CNc1cc(Cl)nc(N)n1)OCC (stereo unspecified) | < 3.70 | < 3.70 | 
C#Cc1c(C)c(/C=C/C(C)=C/C=C/C(C)=C/C(=O)OC)n(C)c1C | < 4.65 | < 4.65 | 
CC(C)O/C=C1\CCc2ccccc2C1=O | < 3.70 | 4.44 | 
CCOC(=O)C1(c2ccccc2)CCCNCC1 (stereo unspecified) | < 3.95 | < 3.95 | 
O=C(CN1C(=O)c2ccccc2C1=O)OCC1CCCN2CCCCC12 (stereo unspecified) | < 3.70 | < 3.70 | 
Cc1cc(Cc2cccc3ccccc23)nc2c1ccc1ccccc12 | < 3.70 | 3.96 | 
C[C@@H]1OC2(O)[C@H]3CCCN3S(=O)(=O)CCN2C1=O (stereo partly specified) | < 3.04 | < 3.04 | 
O=C(OCc1ccccc1)N1CCNCCNCC1 | < 3.70 | < 3.70 | 
NC(Cn1ccc(=O)c(O)c1)C(=O)O (stereo unspecified) | < 3.70 | 4.02 | 
CC(C)CC(NC(=O)C(Cc1ccc(O)cc1)NC(=O)C1CCCN1C(=O)C(NC(=O)C(CO)NC(=O)C(CCCCN)NC(=O)C(NC(=O)C(N)CCC(=O)O)C(C)C)C(C)O)C(=O)NC(CO)C(=O)NC(CCCCN)C(=O)O (stereo unspecified) (H-EVKSTPYLSK-OH; configuration not given here) |  |  | inactive
